Experimental data taken from patent publication US11660303B2, “2-phenylimidazo[4,5-b]pyridin-7-amine derivates useful as inhibitors of mammalian tyrosine kinase ROR1 activity” (KANCERA AB, priority 2016, dated 2023).

Tests used:
Type in all cases: cell-based
MS = test: MTT cytotoxicity assay, MS; settings: Diffuse large B-cell lymphoma (DLBCL), incubation 48 h
Method: (§1) The MTT assay (Sigma-Aldrich) was used to measure cytotoxic capability of the ROR1 tyrosine kinase inhibitors (ROR1-TKI). Briefly, 2×10^4 cancer cells were incubated in triplicates in 200 μL of RPMI-1640 containing 10% FCS in 96 well plates. ROR1-TKI (dissolved in DMSO), were added to the cells. Cells treated with DMSO were used as negative control. Cells were incubated for 48, 72 or 96 h. An amount of 20 μL MTT solution was added and the cell suspension was incubated for 4 h at 37 degrees C. The reaction was stopped by adding 100 μL MTT solvent (10% SDS in 0.01 M HCl) and was incubated for further 2-4 h. The plate was then read by a microplate reader at 570 nm.
(§2) Results, in terms of IC50 (μM), are shown in Table 4 for a representative compound of the invention, viz. Example 172.

OCI-LY3 = test: MTT cytotoxicity assay, OCI-LY3; settings: Homo sapiens, OCI-LY3, Diffuse large B-cell lymphoma (DLBCL), incubation 48 h
Method: as §1, §2

HDLM2 = test: MTT cytotoxicity assay, HDLM2; settings: Homo sapiens, HDLM-2, HDLM2, Hodgkin’s Lymphoma (HL), incubation 48 h
Method: as §1, §2

MDA-V = test: MTT cytotoxicity assay, MDA-V; settings: Hodgkin’s Lymphoma (HL), incubation 48 h
Method: as §1, §2

H82 = test: Alamar Blue cell viability assay, H82; settings: Homo sapiens, NCI-H82; H82, Small cell lung cancer, alamarBlue, incubation 72 h
Method: (§3) Alamar Blue Cell Viability Assay
(§4) Cells were plated 12 hours prior to start of drug treatment, which lasted for 72 hours for all cytotoxicity experiments. Cell viability was estimated by alamarBlue™ Cell Viability Reagent (ThermoFisher, Waltham, Mass.) per manufacturer's instructions.
as §2

H146 = test: Alamar Blue cell viability assay, H146; settings: Homo sapiens, NCI-H146; H146, Small cell lung cancer, alamarBlue, incubation 72 h
Method: as §3, §4, §2

H209 = test: Alamar Blue cell viability assay, H209; settings: Homo sapiens, NCI-H209; H209, Small cell lung cancer, alamarBlue, incubation 72 h
Method: as §3, §4, §2

H1417 = test: Alamar Blue cell viability assay, H1417; settings: Homo sapiens, NCI-H1417; H1417, Small cell lung cancer, alamarBlue, incubation 72 h
Method: as §3, §4, §2

H1963 = test: Alamar Blue cell viability assay, H1963; settings: Homo sapiens, NCI-H1963; H1963, Small cell lung cancer, alamarBlue, incubation 72 h
Method: as §3, §4, §2

A549 = test: MTT cytotoxicity assay, A549; settings: Homo sapiens, A549, Non-small cell lung cancer (NSCLC), incubation 72 h
Method: as §1, §2

HCC827 = test: MTT cytotoxicity assay, HCC827; settings: Homo sapiens, HCC827, Non-small cell lung cancer, incubation 72 h
Method: as §1, §2

H23 = test: MTT cytotoxicity assay, H23; settings: Homo sapiens, NCI-H23, H23, Non-small cell lung cancer, incubation 72 h
Method: as §1, §2

SEM cells [1] = test: MTT cytotoxicity assay, SEM; settings: B-cell acute lymphoblastic leukemia (B-ALL), incubation 48 h
Method: as §1, §2

SEM cells [2] = test: Flow cytometry Annexin V/PI apoptosis assay, SEM; settings: B-cell acute lymphoblastic leukemia (B-ALL), incubation 48 h
Method: (§5) Flow Cytometry Annexin V/PI Apoptosis Assay
(§6) An amount of 1 ml (10^5 cells/mL) of cells were seeded in each well of 6-well plates with and without compounds for 48 h. Cells were collected, washed with PBS, suspended in 100 μL of Annexin-V binding buffer (BD Biosciences) containing FITC-conjugated Annexin-V and PI (BD Biosciences) and incubated at room temperature in the dark for 20 min. After 20 min of incubation, 150 μL Annexin-V binding buffer was added. Viable cells were identified as the double negative Annexin-V and PI population. Samples were analyzed by a FACS Canto II Flow-cytometer (BD Biosciences).
as §2

KE37 = test: Flow cytometry Annexin V/PI apoptosis assay, KE37; settings: Homo sapiens, KE-37, KE37, T-cell acute lymphoblastic leukemia (T-ALL), incubation 48 h
Method: as §5, §6, §2

HPB = test: MTT cytotoxicity assay, HPB; settings: T-cell acute lymphoblastic leukemia (T-ALL), incubation 48 h
Method: as §1, §2

SKOV3 [3] = test: MTT cytotoxicity assay, SKOV3; settings: Homo sapiens, SK-OV-3, SKOV3, Ovarian cancer (OC), incubation 48 h
Method: as §1, §2

SKOV3 [4] = test: Flow cytometry Annexin V/PI apoptosis assay, SKOV3; settings: Homo sapiens, SK-OV-3, SKOV3, Ovarian cancer (OC), incubation 48 h
Method: as §5, §6, §2

Caov3 [5] = test: MTT cytotoxicity assay, Caov3; settings: Homo sapiens, Caov-3, Caov3, Ovarian cancer (OC), incubation 48 h
Method: as §1, §2

Caov3 [6] = test: Flow cytometry Annexin V/PI apoptosis assay, Caov3; settings: Homo sapiens, Caov-3, Caov3, Ovarian cancer (OC), incubation 48 h
Method: as §5, §6, §2

Mino = test: MTT cytotoxicity assay, Mino; settings: Homo sapiens, Mantle Cell Lymphoma (MCL), incubation 96 h
Method: as §1, §2

JeKo1 = test: MTT cytotoxicity assay, JeKo1; settings: Homo sapiens, JeKo-1, JeKo1, Mantle Cell Lymphoma (MCL), incubation 96 h
Method: as §1, §2

JVM2 = test: MTT cytotoxicity assay, JVM2; settings: Homo sapiens, JVM-2, JVM2, Mantle Cell Lymphoma (MCL), incubation 96 h
Method: as §1, §2

AMO-1 = test: MTT cytotoxicity assay, AMO-1; settings: Homo sapiens, AMO1, AMO-1, Multiple Myeloma (MM), incubation 96 h
Method: as §1, §2

Kelly = test: MTT cytotoxicity assay, Kelly; settings: Neuroblastoma, incubation 48 h
Method: as §1, §2

MIA PaCa-2 = test: MTT cytotoxicity assay, MIA PaCa-2; settings: Homo sapiens, MIA PaCa-2, Pancreatic cancer, incubation 48 h
Method: as §1, §2

MDA-MB-231 = test: MTT cytotoxicity assay, MDA-MB-231; settings: Homo sapiens, MDA-MB-231, Triple negative breast cancer, incubation 48 h
Method: as §1, §2

232-B4 = test: MTT cytotoxicity assay, 232-B4; settings: 232-B4, CLL cell line, ExPASy Accession No: CVCL_Y436, MTT, incubation 48 h
Method: as §1, §2

MEC-2 = test: MTT cytotoxicity assay, MEC-2; settings: MEC2, MEC-2, CLL cell line, DSMZ bank, (ACC 500), incubation 48 h
Method: as §1, §2

IC50 (H146): 0.23 µM | IC50 (H209): 0.24 µM | IC50 (H1417): 0.54 µM | IC50 (H1963): 0.2 µM | IC50 (SEM cells [2]): 0.031 µM | IC50 (KE37): 0.18 µM | IC50 (SKOV3 [4]): 0.61 µM | IC50 (Caov3 [6]): 0.27 µM
SMILES: CCOCCN1CCN(c2ccc(-c3nc4c(NC5CCN(CC)CC5)c(Br)cnc4[nH]3)cc2)CC1 [Example 172, 6-Bromo-2-{4-[4-(2-ethoxyethyl)piperazin-1-yl]phenyl}-N-(1-ethylpiperidin-4-yl)-3H-imidazo[4,5-b]pyridin-7-amine]
IC50 (MS): 0.1 µM | IC50 (OCI-LY3): 0.05 µM | IC50 (HDLM2): 0.05 µM | IC50 (MDA-V): 0.05 µM | IC50 (H82): 0.41 µM | IC50 (A549): 0.1 µM | IC50 (HCC827): 0.1 µM | IC50 (H23): 0.15 µM | IC50 (SEM cells [1]): 0.025 µM | IC50 (HPB): 0.1 µM | IC50 (SKOV3 [3]): 0.25 µM | IC50 (Caov3 [5]): 0.25 µM | IC50 (Mino): 0.05 µM | IC50 (JeKo1): 0.075 µM | IC50 (JVM2): 0.2 µM | IC50 (AMO-1): 0.05 µM | IC50 (Kelly): 0.08 µM | IC50 (MIA PaCa-2): 0.1 µM | IC50 (MDA-MB-231): 0.15 µM | IC50 (232-B4): 0.2 µM | IC50 (MEC-2): 0.11 µM
